Measured values from patent US20250221966A1, “RXFP1 AGONISTS” (BRISTOL-MYERS SQUIBB COMPANY, priority 2021, published 2025).
Structures can show the parent of a compound that is named as a salt.

Target: T1, human RXFP1 (Homo sapiens, UniProt Q9HBX9)
T1 construct: expressed in transfected cells
T1 sequence (Q9HBX9 1-757): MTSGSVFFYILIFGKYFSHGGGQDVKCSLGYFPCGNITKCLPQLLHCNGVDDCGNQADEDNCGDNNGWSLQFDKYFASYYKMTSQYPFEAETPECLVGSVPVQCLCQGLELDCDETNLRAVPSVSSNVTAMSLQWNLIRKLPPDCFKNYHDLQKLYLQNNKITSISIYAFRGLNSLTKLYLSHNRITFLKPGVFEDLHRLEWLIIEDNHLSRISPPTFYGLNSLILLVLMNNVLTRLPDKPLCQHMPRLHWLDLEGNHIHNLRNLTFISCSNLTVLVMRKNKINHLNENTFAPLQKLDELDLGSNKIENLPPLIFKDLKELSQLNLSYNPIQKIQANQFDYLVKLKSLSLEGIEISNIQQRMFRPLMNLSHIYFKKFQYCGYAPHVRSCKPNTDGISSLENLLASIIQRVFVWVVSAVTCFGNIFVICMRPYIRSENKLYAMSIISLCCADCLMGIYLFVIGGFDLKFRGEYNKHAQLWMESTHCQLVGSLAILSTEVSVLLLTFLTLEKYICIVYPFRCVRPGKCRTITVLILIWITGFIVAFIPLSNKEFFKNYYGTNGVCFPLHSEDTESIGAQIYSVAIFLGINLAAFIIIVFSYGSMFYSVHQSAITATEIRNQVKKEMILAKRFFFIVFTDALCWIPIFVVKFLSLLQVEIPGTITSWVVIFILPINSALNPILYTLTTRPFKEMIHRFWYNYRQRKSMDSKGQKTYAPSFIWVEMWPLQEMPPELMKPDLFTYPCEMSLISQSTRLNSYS
Experiment: RXFP1 cAMP assay (hRXFP1 HEK293 cAMP assay, HTRF)
Format: cell-based
Settings: HEK293 cells stably expressing human RXFP1, 30 min at room temperature, read-out: cAMP hRXFP1 HEK293 Assay EC50
Method in brief: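 In a stable human RXFP1 HEK293 line, compounds acted for 30 min at RT in buffer with 0.5 mM IBMX. HTRF then quantified cellular cAMP.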

SMILES	EC50
COc1cc(F)c(F)cc1C(=O)N[C@@H]1C2CCC(/C2=C/C(=O)OC(C)(C)C)[C@@H]1C(=O)Nc1ccc(F)c(C(F)(F)F)c1 (some centres unmarked) [compound 8]	110 nM
COc1ccc(C2=NOC3COCC23)cc1C(=O)N[C@H]1[C@@H](C(=O)NCCC2CCC2)[C@H]2CC[C@@H]1/C2=C\C1CC1 (some centres unmarked) [compound 648]	242 nM
C=C(C)/C=C1\C2CCC1[C@H](C(=O)Nc1ccc(F)c(C(F)(F)F)c1)[C@@H]2NC(=O)c1cc(F)c(F)cc1OC (some centres unmarked) [compound 43]	70 nM
COc1ccc(C2=NOC3COCC23)cc1C(=O)N[C@H]1[C@@H](C(=O)NC2(C#N)CCCC2)[C@H]2CC[C@@H]1/C2=C\C1CC1 (some centres unmarked) [compound 476]	6.1 nM
COc1c(F)cc(C2=NOC3CC(CO)CC23)cc1C(=O)N[C@H]1[C@@H](C(=O)Nc2ccc(F)c(C(F)(F)F)c2)[C@H]2CC[C@@H]1/C2=C\CC(O)C(F)(F)F (some centres unmarked) [compound 836]	4.1 nM
O=C(N[C@H]1[C@@H](C(=O)Nc2ccc(F)c(C(F)(F)F)c2)[C@H]2CC[C@@H]1/C2=C\C1CC1)c1cc(C2=NOC3COCC23)ccc1F (single isomer, unassigned) [compound 514]	17.2 nM
COc1ccc(C2=NOC3COCC23)cc1C(=O)N[C@H]1[C@@H](C(=O)N[C@@H](C)c2ccccc2C(F)(F)F)[C@H]2CC[C@@H]1/C2=C\C1CC1 (some centres unmarked) [compound 665]	373 nM
COc1ccc(C2=NO[C@@H]3C[C@H](CO)CN23)cc1C(=O)N[C@H]1[C@@H](C(=O)N[C@H](C)C2(C)CC2)[C@H]2CC[C@@H]1/C2=C\C1CC1 [compound 768]	3 nM
COc1ccc(C2=NOC3CC(CO)CC23)cc1C(=O)N[C@H]1[C@@H](C(=O)Nc2ccc(F)c(C(F)(F)F)c2)[C@H]2CC[C@@H]1C2CC1CCC1 (some centres unmarked) [compound 523]	21.3 nM
COc1ccc(C2=NOC3(CO)CCCC23)cc1C(=O)N[C@H]1[C@@H](C(=O)Nc2ccc(F)c(C(F)(F)F)c2)[C@H]2CC[C@@H]1/C2=C\C1CC1 (single isomer, unassigned) [compound 548]	32.6 nM
CN(C)c1ccc(C2=NOC3COCC23)cc1C(=O)N[C@H]1[C@@H](C(=O)Nc2ccc(F)c(C(F)(F)F)c2)[C@H]2CC[C@@H]1/C2=C\C(F)(F)F (single isomer, unassigned) [compound 518]	18.4 nM
COc1c(F)cc(-c2cnc3n2CC(O)CC3)cc1C(=O)N[C@H]1[C@@H](C(=O)Nc2ccc(F)c(C(F)(F)F)c2)[C@H]2CC[C@@H]1/C2=C\C1CC1 (some centres unmarked) [compound 751]	2.2 nM
COc1ccc(C#N)cc1C(=O)N[C@H]1[C@@H](C(=O)Nc2ccc(F)c(C(F)(F)F)c2)[C@H]2CC[C@@H]1C2=C(C)C [compound 99]	540 nM
COc1c(C)cc(C2=NOC3CC(CO)CC23)cc1C(=O)N[C@H]1[C@@H](C(=O)Nc2ccc(F)c(C(F)(F)F)c2)[C@H]2CC[C@@H]1/C2=C\C1CC1 (some centres unmarked) [compound 797]	4.1 nM
COc1ccc(-c2cnc(C)nc2)cc1C(=O)N[C@H]1[C@@H](C(=O)Nc2ccc(F)c(C(F)(F)F)c2)[C@H]2CC[C@@H]1C2=C(C)C [compound 98]	510 nM
COc1ccc(C2=NOC3COCC23)cc1C(=O)N[C@H]1[C@@H](C(=O)NCC2(C)COC2)[C@H]2CC[C@@H]1/C2=C\C1CC1 (some centres unmarked) [compound 675]	485 nM
COc1ccc(C2=NOC3COCC23)cc1C(=O)N[C@H]1[C@@H](C(=O)NCc2ccccc2C2CC2)[C@H]2CC[C@@H]1/C2=C\C1CC1 (some centres unmarked) [compound 606]	121 nM
CCOC(=O)c1ccnn1-c1ccc(OC)c(C(=O)N[C@@H]2C3CCC(/C3=C/C(F)(F)F)[C@@H]2C(=O)Nc2ccc(F)c(C(F)(F)F)c2)c1 (some centres unmarked) [compound 344]	757 nM
COc1ccc(C2=NOC3COCC23)cc1C(=O)N[C@H]1[C@@H](C(=O)NC2(CO)CCCC2)[C@H]2CC[C@@H]1/C2=C\C1CC1 (some centres unmarked) [compound 651]	269 nM
COc1cc(F)c(F)cc1C(=O)N[C@@H]1C2CCC(/C2=C/C=C/CCO)[C@@H]1C(=O)Nc1ccc(F)c(C(F)(F)F)c1 (some centres unmarked) [compound 67]	1700 nM
CCCC/C=C1\C2CCC1[C@H](C(=O)Nc1ccc(F)c(C(F)(F)F)c1)[C@@H]2NC(=O)c1cc(C2=NOC(CC(=O)O)C2)ccc1OC (some centres unmarked) [compound 395]	104 nM
COc1ccc(C2=NOC3CC(CO)CC23)cc1C(=O)N[C@H]1[C@@H](C(=O)Nc2ccc(F)c(C(F)(F)F)c2)[C@H]2CC[C@@H]1/C2=C\C1CCCC1 (some centres unmarked) [compound 457]	2.1 nM

Results, then the compound that gave them:

EC50	SMILES
8.6 nM	COc1ccc(-c2cc(C3=NOC(C(=O)O)C3)ccc2F)cc1C(=O)N[C@H]1[C@@H](C(=O)Nc2ccc(F)c(C(F)(F)F)c2)[C@H]2CC[C@@H]1/C2=C\C1CC1 (some centres unmarked) [compound 947]
1 nM	COc1ccc(-c2cc(C(C)OC(=O)Nc3ccccc3)ccc2F)cc1C(=O)N[C@H]1[C@@H](C(=O)Nc2ccc(F)c(C(F)(F)F)c2)[C@H]2CC[C@@H]1/C2=C\C1CC1 (stereo partly drawn) [Example 222, 1-(3′-(((1R,2R,3S,4R,Z)-7-(cyclopropylmethylene)-3-((4-fluoro-3-(trifluoromethyl)phenyl)carbamoyl)bicyclo[2.2.1]heptan-2-yl)carbamoyl)-6-fluoro-4′-methoxy-[1,1′-biphenyl]-3-yl)ethyl phenylcarbamate]
5 nM	COc1ccc(-c2ccc(N3CCOCC3)c(C(=O)O)c2)cc1C(=O)N[C@H]1[C@@H](C(=O)Nc2ccc(F)c(C(F)(F)F)c2)[C@H]2CC[C@@H]1/C2=C\C1CC1 [Example 249, 3′-(((1R,2R,3S,4R,Z)-7-(cyclopropylmethylene)-3-((4-fluoro-3-(trifluoromethyl)phenyl)carbamoyl)bicyclo[2.2.1]heptan-2-yl)carbamoyl)-4′-methoxy-4-morpholino-[1,1′-biphenyl]-3-carboxylic acid, TFA]
11 nM	CNC(=O)c1ccc(F)c(-c2ccc(OC)c(C(=O)N[C@@H]3C4CCC(/C4=C/C4CC4)[C@@H]3C(=O)Nc3ccc(F)c(C(F)(F)F)c3)c2)c1 (some centres unmarked) [Example 166]
130 nM	COc1ccc(-c2cc(C(=O)NS(C)(=O)=O)ccc2F)cc1C(=O)N[C@@H]1C2CCC(C2=C(C)C)[C@@H]1C(=O)Nc1ccc(F)c(C(F)(F)F)c1 (some centres unmarked) [compound 131]
5.7 nM	COc1ccc(-c2cc([C@H](OC(=O)NC3CCC3)C(F)(F)F)ccc2F)cc1C(=O)N[C@@H]1C2CCC(/C2=C/C2CCC2)[C@@H]1C(=O)Nc1ccc(F)c(C(F)(F)F)c1 (some centres unmarked) [compound 924]
6 nM	COc1ccc(-c2cc(C(O)C(=O)O)ccc2F)cc1C(=O)N[C@@H]1C2CCC(/C2=C/C2CC2)[C@@H]1C(=O)Nc1ccc(F)c(C(F)(F)F)c1 (some centres unmarked) [compound 181]
1.3 nM	COc1ccc(-c2cc(C(NC(=O)C3CCOCC3)C(=O)O)ccc2F)cc1C(=O)N[C@H]1[C@@H](C(=O)Nc2ccc(F)c(C(F)(F)F)c2)[C@H]2CC[C@@H]1/C2=C\C(C)C (some centres unmarked) [compound 942]
3.6 nM	COc1ccc(-c2cc(C(N)C(=O)O)ccc2F)cc1C(=O)NC1[C@@H]2CC[C@@H](/C2=C/C2CC2)[C@@H]1C(=O)Nc1ccc(F)c(C(F)(F)F)c1 (some centres unmarked) [compound 969]
770 nM	COc1cc(F)c(F)cc1C(=O)N[C@@H]1C2CCC(/C2=C/c2ccncc2)[C@@H]1C(=O)Nc1ccc(F)c(C(F)(F)F)c1 (some centres unmarked) [compound 16]
5.4 nM	COc1ccc(-c2cc(C3=NOC(C(=O)O)C3)ccc2F)cc1C(=O)N[C@H]1[C@@H](C(=O)Nc2ccc(F)c(C(F)(F)F)c2)[C@H]2CC[C@@H]1/C2=C\C1CCCC1 (some centres unmarked) [compound 945]
710 nM	COc1cc(F)c(F)cc1C(=O)N[C@@H]1C2CCC(/C2=C/c2ccc(C#N)cc2)[C@@H]1C(=O)Nc1ccc(F)c(C(F)(F)F)c1 (some centres unmarked) [compound 62]
320 nM	COc1ccc(C2=NOC(CC(=O)O)C2)cc1C(=O)N[C@@H]1C2CCC(/C2=C/C(F)(F)F)[C@@H]1C(=O)Nc1ccc(F)c(C(F)(F)F)c1 (some centres unmarked) [compound 396]
390 nM	COc1ccc(-c2ccn(CC(=O)O)n2)cc1C(=O)N[C@@H]1C2CCC(/C2=C/C(F)(F)F)[C@@H]1C(=O)Nc1ccc(F)c(C(F)(F)F)c1 (some centres unmarked) [compound 342]
12.7 nM	COc1ccc(C2=NOC3CC(C#N)CC23)cc1C(=O)N[C@H]1[C@@H](C(=O)Nc2ccc(F)c(C(F)(F)F)c2)[C@H]2CC[C@@H]1/C2=C\C1CC1 (some centres unmarked) [compound 506]
1.6 nM	COc1ccc(C2=NOC3CC(CO)CC23)cc1C(=O)N[C@H]1[C@@H](C(=O)Nc2ccc(F)c(C(F)(F)F)c2)[C@H]2CC[C@@H]1/C2=C\C(C)C (some centres unmarked) [compound 450]
1 nM	COc1ccc(-c2cc(C(NC(=O)C3CCOCC3)C(=O)O)ccc2F)cc1C(=O)N[C@@H]1C2CCC(/C2=C/C(F)(F)F)[C@@H]1C(=O)Nc1ccc(F)c(C(F)(F)F)c1 (some centres unmarked) [compound 239]
2400 nM	CNC(=O)/C=C1\C2CCC1[C@H](C(=O)Nc1ccc(F)c(C(F)(F)F)c1)[C@@H]2NC(=O)c1cc(F)c(F)cc1OC (some centres unmarked) [compound 73]
2.4 nM	COc1ccc(-c2cccc3c2CC(=O)N3)cc1C(=O)N[C@H]1[C@@H](C(=O)Nc2ccc(F)c(C(F)(F)F)c2)[C@H]2CC[C@@H]1/C2=C\C1CC1 [compound 890]
